In ChEMBL document CHEMBL5705899 (Biochem J, 2014):
The source made the active and inactive calls. No cut-off for these calls is given here.

Assays:
[1] = molecular target: Serine/threonine-protein kinase pim-1 (Homo sapiens) (UniProt P11309); test: Inhibition of human PIM1 at 1 uM using RBER-GSK3 as substrate in presence of 33P-ATP by ProQinase assay
[2] = molecular target: Death-associated protein kinase 2 (Homo sapiens) (UniProt Q9UIK4); test: Inhibition of human DAPK2 at 1 uM using RB-S6P as substrate in presence of 33P-ATP by ProQinase assay
[3] = molecular target: MAP/microtubule affinity-regulating kinase 3 (Homo sapiens) (UniProt P27448); test: Inhibition of human MARK3 at 1 uM using RBER-CHKtide as substrate in presence of 33P-ATP by ProQinase assay
[4] = molecular target: Serine/threonine-protein kinase D1 (Homo sapiens) (UniProt Q15139); test: Inhibition of recombinant human N-terminal His6-tagged PKD1 (2 to 912 residues) expressed in baculovirus infected Sf21 cells assessed as remaining activity at 1 uM using KKLNRTLSVA as substrate incubated for 30 mins in presence of [gamma-33P]ATP by filter binding method relative to control
[5] = molecular target: Cyclin-dependent kinase 5/CDK5 activator 1 (Homo sapiens) (UniProt Q00535+Q15078); test: Inhibition of human CDK5/p25NCK at 1 uM using RBER-CHKtide as substrate in presence of 33P-ATP by ProQinase assay; format: protein-complex assay
[6] = molecular target: Serine/threonine-protein kinase PLK1 (Homo sapiens) (UniProt P53350); test: Inhibition of recombinant human N-terminal His6-tagged PLK1 (1 to 603 residues) expressed in baculovirus infected Sf21 cells assessed as remaining activity at 1 uM using ISDELMDATFADQEAKKK as substrate incubated for 30 mins in presence of [gamma-33P]ATP by filter binding method relative to control
[7] = molecular target: Leucine-rich repeat serine/threonine-protein kinase 2 (Homo sapiens) (UniProt Q5S007); test: Inhibition of human LRRK2 at 1 uM using RBER-GSK3 as substrate in presence of 33P-ATP by ProQinase assay
[8] = molecular target: Serine/threonine-protein kinase 24 (Homo sapiens) (UniProt Q9Y6E0); test: Inhibition of human MST3 at 1 uM using casein as substrate in presence of 33P-ATP by ProQinase assay
[9] = molecular target: Choline/ethanolamine kinase (Homo sapiens) (UniProt Q9Y259); test: Inhibition of recombinant human N-terminal GST-tagged CHKbeta (1 to 395 residues) expressed in Escherichia coli at 1 uM using choline chloride as substrate incubated for 40 mins by ADP-Glo assay
[10] = molecular target: Sphingosine kinase 1 (Homo sapiens) (UniProt Q9NYA1); test: Inhibition of recombinant human N-terminal His6-tagged SPHK1 (1 to 384 residues) expressed in baculovirus expression system at 1 uM using sphingosine as substrate incubated for 40 mins by ADP-Glo assay
[11] = molecular target: Protein kinase C gamma type (Homo sapiens) (UniProt P05129); test: Inhibition of human PKCgamma at 1 uM using 3xChocktide-PKC as substrate in presence of 33P-ATP by ProQinase assay
[12] = molecular target: Diacylglycerol kinase alpha (Homo sapiens) (UniProt P23743); test: Inhibition of DGKalpha (unknown origin) at 1 uM
[13] = molecular target: Ribosomal protein S6 kinase alpha-3 (Homo sapiens) (UniProt P51812); test: Inhibition of human RPS6KA3 at 1 uM using bio-4xCHKT as substrate in presence of 33P-ATP by ProQinase assay
[14] = molecular target: MAP kinase-interacting serine/threonine-protein kinase 2 (Homo sapiens) (UniProt Q9HBH9); test: Inhibition of human MKNK2 at 1 uM using RB-S6P as substrate in presence of 33P-ATP by ProQinase assay
[15] = molecular target: Dual specificity protein kinase TTK (Homo sapiens) (UniProt P33981); test: Inhibition of recombinant human N-terminal His6-tagged TTK (1 to 857 residues) expressed in baculovirus infected Sf21 cells assessed as remaining activity at 1 uM using RSRSRSRSRSRSRSR as substrate incubated for 30 mins in presence of [gamma-33P]ATP by filter binding method relative to control
[16] = molecular target: Eukaryotic translation initiation factor 2-alpha kinase 3 (Homo sapiens) (UniProt Q9NZJ5); test: Inhibition of human EIF2AK3 at 1 uM using casein as substrate in presence of 33P-ATP by ProQinase assay
[17] = molecular target: Serine/threonine-protein kinase ULK1 (Homo sapiens) (UniProt O75385); test: Inhibition of recombinant human ULK1 (2 to 1050 residues) expressed in baculovirus infected Sf21 cells assessed as remaining activity at 1 uM using MBP as substrate incubated for 30 mins in presence of [gamma-33P]ATP by filter binding method relative to control
[18] = molecular target: Tyrosine-protein kinase Fyn (Homo sapiens) (UniProt P06241); test: Inhibition of human FYN at 1 uM using polyEY as substrate in presence of 33P-ATP by ProQinase assay
[19] = molecular target: Ephrin type-A receptor 2 (Homo sapiens) (UniProt P29317); test: Inhibition of recombinant human N-terminal GST-tagged EPHA2 (591 to 976 residues) expressed in Escherichia coli assessed as remaining activity at 1 uM using Poly (Glu,Tyr) as substrate incubated for 30 mins in presence of [gamma-33P]ATP by filter binding method relative to control
[20] = molecular target: Mitogen-activated protein kinase kinase kinase 2 (Homo sapiens) (UniProt Q9Y2U5); test: Inhibition of human MEKK2 at 1 uM using casein as substrate in presence of 33P-ATP by ProQinase assay
[21] = molecular target: Ephrin type-A receptor 4 (Homo sapiens) (UniProt P54764); test: Inhibition of human EPHA4 at 1 uM using polyEY as substrate in presence of 33P-ATP by ProQinase assay
[22] = molecular target: High affinity nerve growth factor receptor (Homo sapiens) (UniProt P04629); test: Inhibition of recombinant human N-terminal His6-tagged TrkA (441 to 760 residues) expressed in baculovirus infected Sf21 cells assessed as remaining activity at 1 uM using Poly(Glu,Tyr) as substrate incubated for 30 mins in presence of [gamma-33P]ATP by filter binding method relative to control
[23] = molecular target: Protein kinase C epsilon type (Homo sapiens) (UniProt Q02156); test: Inhibition of human PKCepsilon at 1 uM using 3xChocktide-PKC as substrate in presence of 33P-ATP by ProQinase assay
[24] = molecular target: Ephrin type-B receptor 4 (Homo sapiens) (UniProt P54760); test: Inhibition of recombinant human N-terminal His6-tagged EPHB4 (561 to 987 residues) expressed in baculovirus infected Sf21 cells assessed as remaining activity at 1 uM using Poly (Glu,Tyr) as substrate incubated for 30 mins in presence of [gamma-33P]ATP by filter binding method relative to control
[25] = molecular target: Protein-tyrosine kinase 6 (Homo sapiens) (UniProt Q13882); test: Inhibition of human BRK at 1 uM using polyEy as substrate in presence of 33P-ATP by ProQinase assay
Sequence of Protein-tyrosine kinase 6 (Homo sapiens) (Q13882 whole entry, looked up): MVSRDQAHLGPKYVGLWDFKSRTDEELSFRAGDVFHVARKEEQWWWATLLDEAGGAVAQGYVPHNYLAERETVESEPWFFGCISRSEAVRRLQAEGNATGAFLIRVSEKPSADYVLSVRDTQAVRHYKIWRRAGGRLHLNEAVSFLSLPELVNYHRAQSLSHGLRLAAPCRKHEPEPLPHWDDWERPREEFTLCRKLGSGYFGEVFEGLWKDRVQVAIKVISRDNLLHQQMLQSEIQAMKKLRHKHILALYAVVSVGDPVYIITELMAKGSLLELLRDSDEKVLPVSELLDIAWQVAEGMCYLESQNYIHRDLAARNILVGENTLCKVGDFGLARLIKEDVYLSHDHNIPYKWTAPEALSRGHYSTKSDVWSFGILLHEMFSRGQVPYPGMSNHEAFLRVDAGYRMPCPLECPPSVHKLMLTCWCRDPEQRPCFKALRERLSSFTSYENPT

Sequence of Diacylglycerol kinase alpha (Homo sapiens) (P23743 whole entry): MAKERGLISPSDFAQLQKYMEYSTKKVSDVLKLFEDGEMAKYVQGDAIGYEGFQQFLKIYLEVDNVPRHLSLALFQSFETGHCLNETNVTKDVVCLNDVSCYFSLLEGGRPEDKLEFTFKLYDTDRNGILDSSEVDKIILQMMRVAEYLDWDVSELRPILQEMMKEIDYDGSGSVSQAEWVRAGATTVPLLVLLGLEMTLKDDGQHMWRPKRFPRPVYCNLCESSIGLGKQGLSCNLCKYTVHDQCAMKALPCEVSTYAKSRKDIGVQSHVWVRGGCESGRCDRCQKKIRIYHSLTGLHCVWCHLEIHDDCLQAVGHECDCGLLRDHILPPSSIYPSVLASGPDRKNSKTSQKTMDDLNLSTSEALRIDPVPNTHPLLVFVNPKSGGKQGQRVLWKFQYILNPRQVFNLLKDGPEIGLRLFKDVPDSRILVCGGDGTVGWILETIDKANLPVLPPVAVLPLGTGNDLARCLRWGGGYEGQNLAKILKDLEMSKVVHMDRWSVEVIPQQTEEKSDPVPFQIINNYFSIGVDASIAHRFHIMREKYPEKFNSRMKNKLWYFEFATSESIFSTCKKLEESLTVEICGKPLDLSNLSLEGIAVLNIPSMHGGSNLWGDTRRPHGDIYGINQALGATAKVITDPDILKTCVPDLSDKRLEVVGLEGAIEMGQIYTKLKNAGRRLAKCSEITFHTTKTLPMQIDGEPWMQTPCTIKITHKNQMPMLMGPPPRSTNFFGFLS
Sequence of Dual specificity protein kinase TTK (Homo sapiens) (P33981 whole entry, the tested form may be a part): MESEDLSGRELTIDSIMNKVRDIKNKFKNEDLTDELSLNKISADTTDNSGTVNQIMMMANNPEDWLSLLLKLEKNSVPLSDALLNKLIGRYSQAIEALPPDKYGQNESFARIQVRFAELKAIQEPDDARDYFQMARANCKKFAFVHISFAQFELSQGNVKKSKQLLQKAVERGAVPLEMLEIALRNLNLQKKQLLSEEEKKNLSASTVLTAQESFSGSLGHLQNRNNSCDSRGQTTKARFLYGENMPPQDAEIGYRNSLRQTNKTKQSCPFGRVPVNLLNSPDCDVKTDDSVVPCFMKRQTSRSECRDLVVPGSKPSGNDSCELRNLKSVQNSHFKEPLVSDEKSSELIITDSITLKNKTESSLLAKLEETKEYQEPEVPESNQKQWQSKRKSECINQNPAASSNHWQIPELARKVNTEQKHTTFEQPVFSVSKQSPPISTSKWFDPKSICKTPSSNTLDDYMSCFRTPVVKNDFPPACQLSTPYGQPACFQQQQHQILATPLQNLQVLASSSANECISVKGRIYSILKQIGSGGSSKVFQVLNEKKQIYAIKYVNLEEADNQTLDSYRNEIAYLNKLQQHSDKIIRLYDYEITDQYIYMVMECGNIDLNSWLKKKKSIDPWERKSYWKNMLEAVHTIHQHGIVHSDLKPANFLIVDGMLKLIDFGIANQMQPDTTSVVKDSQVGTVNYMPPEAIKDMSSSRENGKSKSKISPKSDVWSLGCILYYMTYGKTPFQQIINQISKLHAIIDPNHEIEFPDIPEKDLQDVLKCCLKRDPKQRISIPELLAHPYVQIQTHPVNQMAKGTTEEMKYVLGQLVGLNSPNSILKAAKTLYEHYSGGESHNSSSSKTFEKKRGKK
Sequence of Serine/threonine-protein kinase pim-1 (Homo sapiens) (P11309 whole entry, looked up): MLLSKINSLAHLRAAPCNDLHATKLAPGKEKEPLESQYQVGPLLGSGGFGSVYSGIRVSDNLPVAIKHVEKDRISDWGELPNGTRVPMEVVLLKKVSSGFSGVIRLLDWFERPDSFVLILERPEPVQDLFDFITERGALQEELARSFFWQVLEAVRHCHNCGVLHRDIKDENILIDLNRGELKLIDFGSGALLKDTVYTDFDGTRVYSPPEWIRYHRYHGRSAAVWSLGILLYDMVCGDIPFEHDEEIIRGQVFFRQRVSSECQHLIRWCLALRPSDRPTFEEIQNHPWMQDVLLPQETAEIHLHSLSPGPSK
Sequence of Ephrin type-A receptor 2 (Homo sapiens) (P29317 whole entry, the tested form may be a part): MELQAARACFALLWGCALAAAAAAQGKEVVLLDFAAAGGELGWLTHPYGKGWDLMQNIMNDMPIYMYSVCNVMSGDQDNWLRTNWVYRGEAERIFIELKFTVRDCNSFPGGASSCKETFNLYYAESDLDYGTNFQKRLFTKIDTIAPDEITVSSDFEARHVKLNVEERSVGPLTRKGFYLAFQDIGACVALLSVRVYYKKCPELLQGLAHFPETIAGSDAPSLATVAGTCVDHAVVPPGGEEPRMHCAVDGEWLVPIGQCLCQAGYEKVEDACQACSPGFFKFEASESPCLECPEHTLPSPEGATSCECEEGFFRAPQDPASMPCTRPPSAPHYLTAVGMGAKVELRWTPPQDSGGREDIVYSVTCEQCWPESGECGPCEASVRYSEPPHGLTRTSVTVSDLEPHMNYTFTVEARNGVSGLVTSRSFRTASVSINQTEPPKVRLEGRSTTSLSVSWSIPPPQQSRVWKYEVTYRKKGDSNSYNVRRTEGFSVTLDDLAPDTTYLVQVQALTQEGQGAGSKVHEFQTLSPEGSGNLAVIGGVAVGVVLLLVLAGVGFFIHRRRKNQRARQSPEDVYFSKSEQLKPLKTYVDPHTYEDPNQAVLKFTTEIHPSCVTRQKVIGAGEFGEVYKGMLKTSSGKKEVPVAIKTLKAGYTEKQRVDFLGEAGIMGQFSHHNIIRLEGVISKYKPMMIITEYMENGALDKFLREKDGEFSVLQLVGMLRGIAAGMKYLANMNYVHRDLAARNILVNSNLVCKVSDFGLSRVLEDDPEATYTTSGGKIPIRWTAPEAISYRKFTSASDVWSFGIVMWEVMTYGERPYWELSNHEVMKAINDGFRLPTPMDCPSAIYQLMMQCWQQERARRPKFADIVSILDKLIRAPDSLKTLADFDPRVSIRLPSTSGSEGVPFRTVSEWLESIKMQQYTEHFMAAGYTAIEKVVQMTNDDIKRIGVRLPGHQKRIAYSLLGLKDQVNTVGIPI
Sequence of Serine/threonine-protein kinase ULK1 (Homo sapiens) (O75385 whole entry, the tested form may be a part): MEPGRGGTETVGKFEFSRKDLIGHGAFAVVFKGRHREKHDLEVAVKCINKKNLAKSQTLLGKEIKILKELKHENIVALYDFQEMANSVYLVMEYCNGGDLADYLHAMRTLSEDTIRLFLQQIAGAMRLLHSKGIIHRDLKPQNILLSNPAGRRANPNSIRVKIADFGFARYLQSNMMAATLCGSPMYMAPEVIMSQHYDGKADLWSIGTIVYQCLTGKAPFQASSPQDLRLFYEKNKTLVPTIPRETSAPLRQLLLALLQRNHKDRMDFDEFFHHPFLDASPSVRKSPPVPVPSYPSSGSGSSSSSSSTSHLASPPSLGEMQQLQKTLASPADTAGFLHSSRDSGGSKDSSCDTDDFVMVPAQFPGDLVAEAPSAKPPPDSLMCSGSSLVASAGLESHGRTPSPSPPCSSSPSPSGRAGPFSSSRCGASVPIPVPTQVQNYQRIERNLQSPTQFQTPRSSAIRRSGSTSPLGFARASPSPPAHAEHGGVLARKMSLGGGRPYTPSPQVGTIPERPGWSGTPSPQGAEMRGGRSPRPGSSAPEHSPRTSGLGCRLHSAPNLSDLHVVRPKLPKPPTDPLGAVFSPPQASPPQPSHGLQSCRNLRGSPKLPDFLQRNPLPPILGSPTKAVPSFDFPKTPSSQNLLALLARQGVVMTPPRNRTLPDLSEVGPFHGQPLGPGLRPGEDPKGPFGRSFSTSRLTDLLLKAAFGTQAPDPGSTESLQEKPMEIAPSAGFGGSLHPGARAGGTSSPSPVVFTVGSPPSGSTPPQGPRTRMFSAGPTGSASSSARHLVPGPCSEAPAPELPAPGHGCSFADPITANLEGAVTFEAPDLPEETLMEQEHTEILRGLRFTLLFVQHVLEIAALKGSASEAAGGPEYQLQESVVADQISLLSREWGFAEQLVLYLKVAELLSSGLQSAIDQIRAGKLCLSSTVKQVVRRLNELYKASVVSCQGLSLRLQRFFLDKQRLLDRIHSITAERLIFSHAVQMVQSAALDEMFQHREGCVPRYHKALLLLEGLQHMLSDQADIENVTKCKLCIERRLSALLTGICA
Sequence of Mitogen-activated protein kinase kinase kinase 2 (Homo sapiens) (Q9Y2U5 whole entry): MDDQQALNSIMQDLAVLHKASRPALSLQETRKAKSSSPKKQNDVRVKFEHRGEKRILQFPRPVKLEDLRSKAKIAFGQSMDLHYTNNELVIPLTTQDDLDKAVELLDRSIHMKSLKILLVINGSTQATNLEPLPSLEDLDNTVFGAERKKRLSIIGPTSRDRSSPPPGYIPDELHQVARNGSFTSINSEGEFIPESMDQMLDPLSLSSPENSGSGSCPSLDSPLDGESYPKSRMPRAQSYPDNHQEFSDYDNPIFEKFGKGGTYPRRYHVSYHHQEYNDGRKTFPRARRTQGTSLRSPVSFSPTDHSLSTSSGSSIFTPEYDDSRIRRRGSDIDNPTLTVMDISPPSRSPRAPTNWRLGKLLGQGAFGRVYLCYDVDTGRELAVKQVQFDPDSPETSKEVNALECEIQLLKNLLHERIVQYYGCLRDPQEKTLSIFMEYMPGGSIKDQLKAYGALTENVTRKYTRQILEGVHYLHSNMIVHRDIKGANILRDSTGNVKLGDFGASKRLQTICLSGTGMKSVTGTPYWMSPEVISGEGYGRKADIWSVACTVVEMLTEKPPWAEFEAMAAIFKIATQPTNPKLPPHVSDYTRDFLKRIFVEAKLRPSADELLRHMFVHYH

Q: How did the inhibition [1] turn out when CC(C)(O)CNc1ncc(-c2ccnc(Nc3ccnc(Cl)c3)n2)c(CC2CC2)n1 was run?
A: Its inhibition is “inactive”.

Q: And the inhibition [2]?
A: The inhibition was “inactive”.

Q: What about the inhibition [3] of the same compound?
A: The inhibition was “inactive”.

Q: And the Activity [4]?
A: Its Activity is 115%.

Q: And the inhibition [5]?
A: The inhibition was “inactive”.

Q: What about the Activity [6] of the same compound?
A: The Activity was 114%.

Q: And the inhibition [7]?
A: The inhibition was “inactive”.

Q: And the inhibition [8]?
A: The inhibition was “inactive”.

Q: And the inhibition [9]?
A: Its inhibition is “inactive”.

Q: And the inhibition [10]?
A: The inhibition was “inactive”.

Q: What about the inhibition [11] of the same compound?
A: Its inhibition is “inactive”.

Q: And the inhibition [12]?
A: The inhibition was “inactive”.

Q: What about the inhibition [13] of the same compound?
A: The inhibition was “inactive”.

Q: What about the inhibition [14] of the same compound?
A: Its inhibition is “inactive”.

Q: What about the Activity [15] of the same compound?
A: Its Activity is 108%.

Q: What about the inhibition [16] of the same compound?
A: The inhibition was “inactive”.

Q: What about the Activity [17] of the same compound?
A: Its Activity is 98%.

Q: What about the inhibition [18] of the same compound?
A: Its inhibition is “inactive”.

Q: And the Activity [19]?
A: The Activity was 101%.

Q: What about the inhibition [20] of the same compound?
A: The inhibition was “inactive”.

Q: And the inhibition [21]?
A: Its inhibition is “inactive”.

Q: What about the Activity [22] of the same compound?
A: Its Activity is 70%.

Q: And the inhibition [23]?
A: Its inhibition is “inactive”.

Q: What about the Activity [24] of the same compound?
A: Its Activity is 106%.

Q: What about the inhibition [25] of the same compound?
A: The inhibition was “inactive”.
